Reference: patent US20030220524A1, “Sulfur containing compounds” (priority 2000, published 2003)

Legend:
Test in all cases: MTT assay
Format in all cases: cell-based
[1] = test system: 1232 melanoma tumour cell line; conditions: 48 h, read-out: MTT50
Protocol: (§1) All cell lines were assayed as asynchronously growing cells. Leukemic cell lines, OCI-AML-2, OCI-AML-3 (referred to hereafter as AML-2 and AML-3, respectively), NB-4, KK, B1, G2, and W1 were cultured in alpha-minimal essential medium (α-MEM) (Princess Margaret Hospital Media Services) supplemented with 10% fetal bovine serum (FBS) (Sigma, St. Louis, Mo.). Non-transformed, diploid fibroblast lines WI38 and IMR90, were cultured in α-MEM and MEM F-15, respectively supplemented with 10% FBS. Media for IMR90 cells was also supplemented with 1.5 g/L bicarbonate and 1 mM pyruvate. Breast tumour cell lines, MDA-231, SK-BR-3, MCF-7, ZR-751, and melanoma tumour cell lines, WM9, WM983, WM793, 1232, were grown in α-MEM supplemented with 10% fetal bovine serum. Prostate tumour cell lines, DU145 and PC-3, were grown in RPMI 1640 media supplemented with 10% FBS. All cell lines were cultured in the presence of penicillin/streptomycin. Mononucleated cells were isolated from normal bone marrow using Ficoll hypaque and then T-cell depleted. T-cell depletion was performed by incubating the mononucleated bone marrow cells in α-MEM at a concentration of 2×10^7 cells/mL with 10% absor FBS and 10% (v/v) sheep red blood cells for 4 to 16 h. Absor FBS was prepared beforehand by heating FBS at 56° C. for 1 h, incubating with sheep red blood cells at 0.5% (v/v) for 1 h and then filtering the FBS with a […]. The T-cell depleted, mononucleated cells were recovered using Ficoll hypaque and were maintained in α-MEM supplemented with 20% FBS and 10% 5637 ? nditioned media. 5637 conditioned media ? s previously harvested from confluent 5637 cells after a 3 day incubation. Normal bone marrow from bone marrow transplant donor was collected following informed consent according to institutional guidelines.
(§2) Approximately 20 mg of each compound was dissolved in 5 mL of ACS grade acetone (Sigma) using a 5 mL volumetric flask. Stock solutions of the compounds were stored in the dark at −20° C. Compounds were diluted prior to each experiment.
(§3) Adherent cells were seeded at 67×10^3 cells/mL in a 96 well plate (Falcon, Mississauga, Ontario) the day prior to exposure to compound. Suspension cells were seeded at 27×10^4 cells/mL in a 96 well plate the day of exposure to compound. Mononucleated, T-cell depleted normal bone marrow cells were seeded at 67×10^4 cells/mL in a 96 well plate the day of exposure to compound. Compounds and solvent control were added to cells and assayed in triplicate or sextuplet. Following 48 h of incubation at 37° C. with 5% CO2, 40 μL of a 5 mg/mL solution of 3-[4,5-dimethylthiazol-2-yl]-2,5-diphenyltetrazolium bromide (MTT) substrate (Sigma) in Dulbecco's phosphate-buffered saline (D-PBS) was added. After 4 h of incubation at 37° C. with 5% CO2, the resulting violet formazan precipitate was solubilized by the addition of 80 μL of a 0.01 M HCI, 10% sodium dodecyl sulfate (SDS; Sigma) solution overnight at 37° C. with 5% CO2. The plates were then analyzed using the BioRad Benchmark Microplate Reader (BioRad Laboratories, Hercules, Calif.) at 570 nm to determine the optical density of the samples. MTT data was analyzed using Prism 3.0 (GraphPad Software, Inc., San Diego, Calif.) by the Chou-Talalay method. MTT graphs shown are a representative experiment.
(§4) Adherent cells were seeded at 67×10^3 cells/mL in a 96 well plate (Falcon, Mississauga, Ontario) the day prior to exposure to compound. Suspension cells were seeded at 27×10^4 cells/mL in a 96 well plate the day of exposure to compound. Mononucleated, T-cell depleted normal bone marrow cells were seeded at 67×10^4 cells/mL in a 96 well plate the day of exposure to compound. Compounds and solvent control were added to cells and assayed in triplicate or sextuplet. […]

[2] = test system: DU145 prostate tumour cell line; conditions: Homo sapiens, DU-145, 48 h, read-out: MTT50
Protocol: as §1, §2, §3, §4

[3] = test system: MDA-231 breast tumour cell line; conditions: Homo sapiens, MDA-MB-231, 48 h, read-out: MTT50
Protocol: as §1, §2, §3, §4

[4] = test system: SK-BR-3 breast tumour cell line; conditions: Homo sapiens, 48 h, read-out: MTT50
Protocol: as §1, §2, §3, §4

[5] = test system: WM793 melanoma tumour cell line; conditions: Homo sapiens, 48 h, read-out: MTT50
Protocol: as §1, §2, §3, §4

[6] = test system: WM9 melanoma tumour cell line; conditions: 48 h, read-out: MTT50
Protocol: as §1, §2, §3, §4

[7] = test system: WM983 melanoma tumour cell line; conditions: 48 h, read-out: MTT50
Protocol: as §1, §2, §3, §4

[8] = test system: ZR-751 breast tumour cell line; conditions: Homo sapiens, ZR-75-1, 48 h, read-out: MTT50
Protocol: as §1, §2, §3, §4

IC50 [1]: 56 µM
IC50 [2]: 65.4 µM
IC50 [3]: 68.9 µM
IC50 [4]: 59 µM
IC50 [5]: 47 µM
IC50 [6]: 41 µM
IC50 [7]: 47 µM
IC50 [8]: 52 µM
SMILES: CCC(=O)OCSSc1ccccc1 [Compound Q, 1-phenyl-1,2-dithiapropyl propionate]
